Data from ChEMBL document CHEMBL5352460, “Antibacterial activity evaluation of pleuromutilin derivatives with 4(3H)-quinazolinone scaffold against methicillin-resistant Staphylococcusaureus” (Eur J Med Chem, 2023).
Converted amounts (≈) assume the structure as drawn.

Experiments:
[1] = Metabolic stability in rat liver microsomes assessed as half-life incubated for 45 mins in the presence of NADPH by LC/MS analysis; format: ADME, Microsome
[2] = Metabolic stability in rat liver microsomes assessed as intrinsic clearance incubated for 45 mins in the presence of NADPH by LC/MS analysis; format: ADME, Microsome; settings: read-out: CLH
[3] = Metabolic stability in rat liver microsomes assessed as parent compound remaining incubated for 45 mins in the presence of NADPH by LC/MS analysis; format: ADME, Microsome; settings: read-out: Stability
Staphylococcus aureus [4] = test: Post antibiotic effect against methicillin-resistant Staphylococcus aureus assessed as time required for 1 log10 increase in CFU at 4 times of MIC incubated for 2 hrs followed by drug washout and measured after 24 hrs; format: functional
[5] = Metabolic stability in rat whole blood assessed as half-life incubated upto 120 mins by LC/MS analysis; format: ADME, tissue-based
[6] = tested on: Staphylococcus epidermidis; test: Antibacterial activity against methicillin-resistant Staphylococcus epidermidis assessed as inhibition of bacterial growth incubated for 20 hrs by absorbance based analysis; format: functional
Staphylococcus aureus [7] = test: microbe, parasite or virus in culture; format: functional; settings: ATCC29213, time 20 hrs
[8] = Metabolic stability in rat whole blood assessed as parent compound remaining measured after 120 mins by LC-MS analysis; format: ADME, tissue-based; settings: read-out: Stability
[9] = Metabolic stability in rat whole blood assessed as parent compound remaining measured after 30 mins by LC-MS analysis; format: ADME, tissue-based; settings: read-out: Stability
Staphylococcus aureus [10] = test: Post antibiotic effect against methicillin-resistant Staphylococcus aureus assessed as time required for 1 log10 increase in CFU at 1 time of MIC incubated for 2 hrs followed by drug washout and measured after 24 hrs; format: functional
Escherichia coli = test: microbe, parasite or virus in culture; format: functional; settings: ATCC25922, time 20 hrs
Staphylococcus aureus [11] = test: Antibacterial activity against methicillin-resistant Staphylococcus aureus infected in cyclophosphamide-induced neutropenic thigh infection Kunming mouse model assessed as reduction in bacterial count at 50 mg/kg, ip pre-infected with bacteria for 2 hrs followed by compound treatment and measured after 26 hrs; format: functional
[12] = Antibacterial activity against Salmonella pullorum assessed as inhibition of bacterial growth incubated for 20 hrs by absorbance based analysis; format: functional, Salmonella enterica subsp. enterica serovar Pullorum; settings: Salmonella enterica
Staphylococcus aureus [13] = test: Post antibiotic effect against methicillin-resistant Staphylococcus aureus assessed as time required for 1 log10 increase in CFU at 2 times of MIC incubated for 2 hrs followed by drug washout and measured after 24 hrs; format: functional
Staphylococcus aureus [14] = test: Post antibiotic effect against methicillin-resistant Staphylococcus aureus assessed as time required for 1 log10 increase in CFU at 10 times of MIC incubated for 2 hrs followed by drug washout and measured after 24 hrs; format: functional
Staphylococcus aureus [15] = test: microbe, parasite or virus in culture; format: functional; settings: time 20 hrs
[16] = Metabolic stability in rat whole blood assessed as parent compound remaining measured after 15 mins by LC-MS analysis; format: ADME, tissue-based; settings: read-out: Stability
[17] = Metabolic stability in rat whole blood assessed as parent compound remaining measured after 5 mins by LC-MS analysis; format: ADME, tissue-based; settings: read-out: Stability
[18] = Metabolic stability in rat whole blood assessed as parent compound remaining measured after 60 mins by LC-MS analysis; format: ADME, tissue-based; settings: read-out: Stability
Staphylococcus aureus [19] = test: microbe, parasite or virus in culture; format: functional; settings: ATCC25923, time 20 hrs
[20] = Cytotoxicity against mouse RAW264.7 cells assessed as inhibition of cell growth at 100 uM incubated for 72 hrs by CCK8 assay relative to control; format: toxicity, cell-based
[21] = Metabolic stability in rat whole blood assessed as parent compound remaining measured immediately by LC-MS analysis; format: ADME, tissue-based; settings: read-out: Stability
Staphylococcus aureus [22] = test: Bactericidal activity against methicillin-resistant Staphylococcus aureus assessed as reduction in bacterial count at 1 to 10 times of MIC incubated for 24 hrs by serial dilution based time-kill kinetics assay; format: functional
Staphylococcus aureus [23] = test: Antibacterial activity against methicillin-resistant Staphylococcus aureus assessed as reduction in bacterial growth at 1 to 10 times of MIC by serial dilution based time-kill kinetics assay; format: functional, organism-based; settings: time <= 24.0 hrs, TDE = time-dependent effect

| Compound | MIC [6] [µg/mL] | MIC (Staphylococcus aureus [7]) [µg/mL] | MIC (Escherichia coli) [µg/mL] | MIC [12] [µg/mL] | MIC (Staphylococcus aureus [15]) [µg/mL] | MIC (Staphylococcus aureus [19]) [µg/mL] | also measured |
| --- | --- | --- | --- | --- | --- | --- | --- |
| O=C(c1ccc(F)cc1)C1CCN(CCn2c(=O)[nH]c3ccccc3c2=O)CC1 [KETANSERIN] |  |  |  |  |  |  | half-life [1]: 27.9 min; microsomal CLint [2]: 88.9 µL/min/mg; remaining at 0.75 h [3]: 33.5% |
| C=C[C@]1(C)C[C@@H](OC(=O)CSCCN(CC)CC)[C@]2(C)[C@H](C)CC[C@]3(CCC(=O)[C@H]32)[C@@H](C)[C@@H]1O [TIAMULIN] | 1 (≈ 2.03 µM) | 0.5 (≈ 1.01 µM) | > 64 | > 64 | 0.5 (≈ 1.01 µM) | 1 (≈ 2.03 µM) | Time (Staphylococcus aureus [4]): 2.08 h; half-life [5]: > 120 min; half-life [1]: 1.85 min; remaining at 2 h [8]: 84%; microsomal CLint [2]: 1340 µL/min/mg; remaining at 0.5 h [9]: 88.5%; Time (Staphylococcus aureus [10]): 1.95 h; remaining at 0.75 h [3]: 0.88%; Activity (Staphylococcus aureus [11]): 1.62 log10CFU/ml; Time (Staphylococcus aureus [13]): 1.79 h; Time (Staphylococcus aureus [14]): 2.17 h; remaining at 0.25 h [16]: 90.7%; remaining at 5 min [17]: 94.8%; remaining at 1 h [18]: 87.3%; inhibition at 72 h, 100 µM [20]: ~60%; remaining at 0 min [21]: 100% |
| C=C[C@]1(C)C[C@@H](OC(=O)CS[C@@H]2C[C@H]3CC[C@@H](C2)N3C)[C@]2(C)[C@H](C)CC[C@]3(CCC(=O)[C@H]32)[C@@H](C)[C@@H]1O [RETAPAMULIN] | 0.5 (≈ 0.966 µM) | 0.063 (≈ 0.122 µM) | 4 (≈ 7.73 µM) | > 64 | 0.063 (≈ 0.122 µM) | 0.063 (≈ 0.122 µM) | half-life [5]: > 120 min; half-life [1]: 3.29 min; remaining at 2 h [8]: 98.6%; microsomal CLint [2]: 755 µL/min/mg; remaining at 0.5 h [9]: 99%; remaining at 0.75 h [3]: 4.12%; remaining at 0.25 h [16]: 99.2%; remaining at 5 min [17]: 99.2%; remaining at 1 h [18]: 98.1%; remaining at 0 min [21]: 100% |
| C=C[C@]1(C)C[C@@H](OC(=O)CN2CCN(c3nc4ccccc4c(=O)[nH]3)CC2)[C@]2(C)[C@H](C)CC[C@]3(CCC(=O)[C@H]32)[C@@H](C)[C@@H]1O | 1 (≈ 1.69 µM) | 0.125 (≈ 0.212 µM) | 64 (≈ 108 µM) | > 64 | 0.125 (≈ 0.212 µM) | 0.063 (≈ 0.107 µM) | half-life [1]: 0.81 min; microsomal CLint [2]: 3070 µL/min/mg; remaining at 0.75 h [3]: 0.21%; Activity (Staphylococcus aureus [22]): 3.05 log10CFU/ml; Activity (Staphylococcus aureus [23]): Tde; inhibition at 72 h, 100 µM [20]: ~60% |
| C=C[C@]1(C)C[C@@H](OC(=O)CSc2nc3cccc([N+](=O)[O-])c3c(=O)[nH]2)[C@]2(C)[C@H](C)CC[C@]3(CCC(=O)[C@H]32)[C@@H](C)[C@@H]1O | 4 (≈ 6.85 µM) | 0.25 (≈ 0.428 µM) | > 64 | > 64 | 0.25 (≈ 0.428 µM) | 0.25 (≈ 0.428 µM) |  |
| C=C[C@]1(C)C[C@@H](OC(=O)CSc2nc3cccc(C)c3c(=O)[nH]2)[C@]2(C)[C@H](C)CC[C@]3(CCC(=O)[C@H]32)[C@@H](C)[C@@H]1O | 2 (≈ 3.62 µM) | 0.25 (≈ 0.452 µM) | > 64 | > 64 | 0.25 (≈ 0.452 µM) | 0.25 (≈ 0.452 µM) |  |
| C=C[C@]1(C)C[C@@H](OC(=O)CSc2nc3ccc(Cl)cc3c(=O)[nH]2)[C@]2(C)[C@H](C)CC[C@]3(CCC(=O)[C@H]32)[C@@H](C)[C@@H]1O | 1 (≈ 1.74 µM) | 0.25 (≈ 0.436 µM) | > 64 | > 64 | 0.25 (≈ 0.436 µM) | 0.25 (≈ 0.436 µM) |  |
| C=C[C@]1(C)C[C@@H](OC(=O)CSc2nc3sccc3c(=O)[nH]2)[C@]2(C)[C@H](C)CC[C@]3(CCC(=O)[C@H]32)[C@@H](C)[C@@H]1O | 1 (≈ 1.84 µM) | 0.25 (≈ 0.459 µM) | 64 (≈ 117 µM) | > 64 | 0.25 (≈ 0.459 µM) | 0.25 (≈ 0.459 µM) |  |
| C=C[C@]1(C)C[C@@H](OC(=O)CSc2nc3ccccc3c(=O)n2C)[C@]2(C)[C@H](C)CC[C@]3(CCC(=O)[C@H]32)[C@@H](C)[C@@H]1O | 0.5 (≈ 0.905 µM) | 0.063 (≈ 0.114 µM) | 64 (≈ 116 µM) | > 64 | 0.25 (≈ 0.452 µM) | 0.125 (≈ 0.226 µM) |  |
| C=C[C@]1(C)C[C@@H](OC(=O)CSc2nc3ccccc3c(=O)[nH]2)[C@]2(C)[C@H](C)CC[C@]3(CCC(=O)[C@H]32)[C@@H](C)[C@@H]1O | 1 (≈ 1.86 µM) | 0.25 (≈ 0.464 µM) | > 64 | > 64 | 0.25 (≈ 0.464 µM) | 0.25 (≈ 0.464 µM) |  |
| C=C[C@]1(C)C[C@@H](OC(=O)CSc2nc3ccccc3c(=O)n2C2CCCCC2)[C@]2(C)[C@H](C)CC[C@]3(CCC(=O)[C@H]32)[C@@H](C)[C@@H]1O | > 64 | > 64 | > 64 | > 64 | > 64 | > 64 |  |
| C=C[C@]1(C)C[C@@H](OC(=O)CN2CCN(C(=O)c3nc4ccccc4c(=O)[nH]3)CC2)[C@]2(C)[C@H](C)CC[C@]3(CCC(=O)[C@H]32)[C@@H](C)[C@@H]1O | 2 (≈ 3.23 µM) | 0.5 (≈ 0.808 µM) | > 64 | > 64 | 0.5 (≈ 0.808 µM) | 1 (≈ 1.62 µM) |  |
| C=C[C@]1(C)C[C@@H](OC(=O)CSc2nc3c(Cl)cccc3c(=O)[nH]2)[C@]2(C)[C@H](C)CC[C@]3(CCC(=O)[C@H]32)[C@@H](C)[C@@H]1O | 1 (≈ 1.74 µM) | 0.125 (≈ 0.218 µM) | > 64 | > 64 | 0.125 (≈ 0.218 µM) | 0.125 (≈ 0.218 µM) |  |
| CC(Cc1cccc(C(F)(F)F)c1)NCCOC(=O)c1ccccc1 (stereo not given) [BENFLUOREX] |  |  |  |  |  |  | half-life [5]: 25.2 min; remaining at 2 h [8]: 3.63%; remaining at 0.5 h [9]: 49.2%; remaining at 0.25 h [16]: 71.3%; remaining at 5 min [17]: 77.8%; remaining at 1 h [18]: 19.5%; remaining at 0 min [21]: 100% |
| C=C[C@]1(C)C[C@@H](OC(=O)CN2CCN(Cc3nc4ccccc4c(=O)[nH]3)CC2)[C@]2(C)[C@H](C)CC[C@]3(CCC(=O)[C@H]32)[C@@H](C)[C@@H]1O | 2 (≈ 3.31 µM) | 1 (≈ 1.65 µM) | > 64 | > 64 | 2 (≈ 3.31 µM) | 1 (≈ 1.65 µM) |  |
